The NIST ThermoML archive (doi:10.1021/je600565m)

Assay: xn = mol fraction of the nth substance listed
Conditions: 101 kPa, Liquid

CCO [ethanol] + O
Conditions | mass density [kg/m3] | viscosity [mPa·s]
298.15 K, x2 = 0.0998 | 797.6 | –
298.15 K, x2 = 0.2009 | – | 1.407
298.15 K, x2 = 0.2018 | 810.78 | –
298.15 K, x2 = 0.3001 | – | 1.558
298.15 K, x2 = 0.3085 | 826.73 | –
298.15 K, x2 = 0.4016 | – | 1.761
298.15 K, x2 = 0.4145 | 843.26 | –
298.15 K, x2 = 0.5001 | 858.65 | 1.946
298.15 K, x2 = 0.6 | – | 2.166
298.15 K, x2 = 0.6205 | 885.56 | –
298.15 K, x2 = 0.7 | – | 2.342
298.15 K, x2 = 0.7005 | 904.69 | –
298.15 K, x2 = 0.7992 | 933.6 | –
298.15 K, x2 = 0.8 | – | 2.39
298.15 K, x2 = 0.9 | – | 1.923
298.15 K, x2 = 0.9051 | 965.51 | –
318.15 K, x2 = 0.1 | 780.53 | 0.848
318.15 K, x2 = 0.2 | – | 0.951
318.15 K, x2 = 0.201 | 793.6 | –
318.15 K, x2 = 0.3001 | 807.71 | 1.003
318.15 K, x2 = 0.4004 | 823.81 | –
318.15 K, x2 = 0.4036 | – | 1.09
318.15 K, x2 = 0.5002 | – | 1.168
318.15 K, x2 = 0.5003 | 840.31 | –
318.15 K, x2 = 0.5998 | 863.31 | –
318.15 K, x2 = 0.6 | – | 1.243
318.15 K, x2 = 0.7 | – | 1.298
318.15 K, x2 = 0.7001 | 888.76 | –
318.15 K, x2 = 0.8001 | 919.19 | –
318.15 K, x2 = 0.8007 | – | 1.293
318.15 K, x2 = 0.9 | 952.47 | 0.977

CCOC(C)=O [ethyl acetate] + CCO
Conditions | mass density [kg/m3] | viscosity [mPa·s]
298.15 K, x1 = 0.1 | 801.5 | 0.848
298.15 K, x1 = 0.1992 | 816.25 | –
298.15 K, x1 = 0.2 | – | 0.707
298.15 K, x1 = 0.3 | – | 0.614
298.15 K, x1 = 0.3006 | 829.52 | –
298.15 K, x1 = 0.3949 | 840.61 | –
298.15 K, x1 = 0.4 | – | 0.56
298.15 K, x1 = 0.5 | – | 0.513
298.15 K, x1 = 0.5001 | 852.04 | –
298.15 K, x1 = 0.5987 | 861.64 | –
298.15 K, x1 = 0.6 | – | 0.488
298.15 K, x1 = 0.7 | 870.79 | 0.465
298.15 K, x1 = 0.7981 | 879.06 | –
298.15 K, x1 = 0.8 | – | 0.448
298.15 K, x1 = 0.9 | 886.96 | 0.434
298.15 K, x1 = 0.9501 | 890.81 | –
318.15 K, x1 = 0.1 | 783.09 | 0.624
318.15 K, x1 = 0.2 | – | 0.535
318.15 K, x1 = 0.2001 | 796.45 | –
318.15 K, x1 = 0.3 | 808.31 | –
318.15 K, x1 = 0.3007 | – | 0.471
318.15 K, x1 = 0.4 | – | 0.432
318.15 K, x1 = 0.4001 | 819.37 | –
318.15 K, x1 = 0.5 | 829.53 | 0.412
318.15 K, x1 = 0.6 | 838.75 | –
318.15 K, x1 = 0.6003 | – | 0.387
318.15 K, x1 = 0.7 | 847.18 | –
318.15 K, x1 = 0.7006 | – | 0.374
318.15 K, x1 = 0.8 | – | 0.364
318.15 K, x1 = 0.8001 | 855.16 | –
318.15 K, x1 = 0.8999 | 862.6 | –
318.15 K, x1 = 0.9 | – | 0.36

CCOC(C)=O [ethyl acetate] + O
Conditions | mass density [kg/m3] | viscosity [mPa·s]
298.15 K, x2 = 0.0258 | – | 0.436
298.15 K, x2 = 0.0269 | 895.32 | –
298.15 K, x2 = 0.045 | – | 0.444
298.15 K, x2 = 0.0469 | 896.13 | –
298.15 K, x2 = 0.0722 | 897.09 | –
298.15 K, x2 = 0.0748 | – | 0.456
298.15 K, x2 = 0.0853 | – | 0.46
298.15 K, x2 = 0.0892 | 897.9 | –
298.15 K, x2 = 0.1045 | 898.48 | –
298.15 K, x2 = 0.1053 | – | 0.468
298.15 K, x2 = 0.1249 | 899.5 | –
298.15 K, x2 = 0.1258 | – | 0.476
318.15 K, x2 = 0.0249 | 870.81 | –
318.15 K, x2 = 0.025 | – | 0.362
318.15 K, x2 = 0.0496 | – | 0.368
318.15 K, x2 = 0.0524 | 871.8 | –
318.15 K, x2 = 0.075 | – | 0.373
318.15 K, x2 = 0.0766 | 872.73 | –
318.15 K, x2 = 0.0999 | – | 0.379
318.15 K, x2 = 0.1003 | 873.94 | –
318.15 K, x2 = 0.1254 | – | 0.385
318.15 K, x2 = 0.1255 | 875.08 | –
